Laboratory results as given in paper PMC12297533 (Scientific Reports, 2025).
Like-named read-outs stand apart in the source and are kept apart here.

What was measured:
[1] = target: AChE (Homo sapiens, UniProt P22303); experiment: biochemical; conditions: for Inhibitory activity against AChE: concentrations up to 100 µM
[2] = target: T1, COX-1 (Homo sapiens, UniProt P23219); experiment: In vitro COX-1 enzyme inhibitory assay (Cayman kit); format: biochemical; conditions: mean ± SD, n = 3
T1 construct: purchased Cayman No.548
T1 sequence (P23219 24-599): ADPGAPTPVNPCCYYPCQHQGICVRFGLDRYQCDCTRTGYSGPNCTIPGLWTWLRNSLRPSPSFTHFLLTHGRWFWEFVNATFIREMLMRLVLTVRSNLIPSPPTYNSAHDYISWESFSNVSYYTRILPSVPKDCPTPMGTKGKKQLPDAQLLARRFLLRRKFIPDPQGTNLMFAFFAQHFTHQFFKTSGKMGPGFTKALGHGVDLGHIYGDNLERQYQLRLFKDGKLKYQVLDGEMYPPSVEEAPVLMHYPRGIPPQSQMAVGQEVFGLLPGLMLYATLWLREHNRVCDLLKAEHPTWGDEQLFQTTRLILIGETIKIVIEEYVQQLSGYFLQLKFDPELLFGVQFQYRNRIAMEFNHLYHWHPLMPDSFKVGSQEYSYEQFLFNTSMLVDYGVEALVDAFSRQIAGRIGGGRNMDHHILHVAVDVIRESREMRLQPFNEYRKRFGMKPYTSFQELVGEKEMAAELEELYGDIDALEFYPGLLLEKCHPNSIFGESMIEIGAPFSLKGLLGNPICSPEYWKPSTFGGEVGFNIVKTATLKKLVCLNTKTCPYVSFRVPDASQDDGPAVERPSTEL
Protocol: (§1) The ability to inhibit COX-1 and COX-2 enzymes was evaluated as previously reported[35],[36], using COX-1 Cayman human enzyme inhibitory assay kit (No.548, USA), COX-2 Cayman human enzyme inhibitory assay kit (No.547, USA) and Tecan Spark reader. […] The % Relative Inhibition was calculated as follows: [drawing 1]

[3] = test system: SH-SY5Y cells; experiment: Determination of non-cytotoxic concentrations (WST-1 cell viability); format: cell-based; conditions: for Non-cytotoxic concentration on SH-SY5Y cells: human; for Concentration showing cytotoxic effect on SH-SY5Y cells: tested 6.25-200 μM
Protocol: In this assay, the non-toxic concentrations of the tested samples to SH-SY5Y cells, along with catechin[58] and epicatechin-3-gallate[59] as a positive controls were used for the evaluation of the neuroprotective activity. […]. Cell viability was then assessed using a previously described method.

[4] = target: T2, COX-2 (Homo sapiens, UniProt P35354); experiment: In vitro COX-2 enzyme inhibitory assay (Cayman kit); format: biochemical; conditions: for IC50: mean ± SD, n = 3
T2 construct: purchased Cayman No.547
T2 sequence (P35354 18-604): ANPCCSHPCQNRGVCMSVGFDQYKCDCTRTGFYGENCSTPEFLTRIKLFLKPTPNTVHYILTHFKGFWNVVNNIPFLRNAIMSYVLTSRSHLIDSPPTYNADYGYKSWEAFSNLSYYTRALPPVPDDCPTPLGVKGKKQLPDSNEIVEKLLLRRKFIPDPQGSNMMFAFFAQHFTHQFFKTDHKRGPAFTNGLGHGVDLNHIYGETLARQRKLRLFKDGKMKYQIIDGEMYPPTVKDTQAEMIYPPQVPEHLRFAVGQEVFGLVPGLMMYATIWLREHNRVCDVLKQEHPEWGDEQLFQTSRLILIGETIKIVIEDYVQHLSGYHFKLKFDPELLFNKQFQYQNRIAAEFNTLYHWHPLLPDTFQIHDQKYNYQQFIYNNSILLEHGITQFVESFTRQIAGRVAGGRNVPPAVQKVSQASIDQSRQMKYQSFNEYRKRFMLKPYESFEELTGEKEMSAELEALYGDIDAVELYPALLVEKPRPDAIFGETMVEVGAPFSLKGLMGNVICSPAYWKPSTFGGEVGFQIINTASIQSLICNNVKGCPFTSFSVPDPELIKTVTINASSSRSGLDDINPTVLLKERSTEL
Protocol: as §1

[5] = test system: SH-SY5Y cells; experiment: Protection against H2O2 induced-neurotoxicity; format: cell-based, human; conditions: 150 μM H2O2; for Neuroprotective activity against H2O2: 6.25, 12.5, 25 μM
Protocol: H2O2 concentration that caused 50% reduction in cell viability was evaluated as previously reported. Then the cultured cells (2 × 10^4 cells/well) were incubated with test samples (at non-cytotoxic concentrations: 6.25, 12.5, 25 μM) or catechin as a positive control (at non-cytotoxic concentrations: 6.25, 12.5, 25, 50, 100 μM). Lastly, the WST-1 reagent was used to evaluate the cell viability as reported.

[6] = test system: SH-SY5Y cells; experiment: Protection against Aβ1-42 induced-neurotoxicity; format: cell-based, human; conditions: only at 50 and 100 μM; Aβ1-42 25 μM
Protocol: Finally, evaluation of cell viability was conducted.

[7] = mean ± SD, n = 3, read-out: AChE inhibition IC50

Sequence of AChE (P22303 32-614): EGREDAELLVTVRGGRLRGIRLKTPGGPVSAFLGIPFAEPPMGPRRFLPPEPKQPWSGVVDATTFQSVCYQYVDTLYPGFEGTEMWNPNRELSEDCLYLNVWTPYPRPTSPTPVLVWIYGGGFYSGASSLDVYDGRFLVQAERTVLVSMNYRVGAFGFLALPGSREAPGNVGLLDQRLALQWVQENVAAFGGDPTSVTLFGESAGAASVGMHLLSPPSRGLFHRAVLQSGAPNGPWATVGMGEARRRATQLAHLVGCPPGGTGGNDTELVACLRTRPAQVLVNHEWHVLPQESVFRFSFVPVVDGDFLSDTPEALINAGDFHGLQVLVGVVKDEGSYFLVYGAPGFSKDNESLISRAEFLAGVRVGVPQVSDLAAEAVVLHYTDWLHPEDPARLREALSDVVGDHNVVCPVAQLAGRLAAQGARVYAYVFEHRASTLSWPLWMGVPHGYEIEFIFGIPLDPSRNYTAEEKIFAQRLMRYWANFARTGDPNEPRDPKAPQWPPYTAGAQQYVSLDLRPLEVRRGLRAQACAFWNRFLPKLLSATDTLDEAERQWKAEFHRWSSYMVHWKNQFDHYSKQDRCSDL

In the case of `CC(C)=CCCC(C)(O)C1CC=C(C)CC1` (stereo not drawn) [α-Bisabolol, (-)-α-bisabolol, reference compound], the IC50 [1] is reported as over 100 µM, the “Inhibitory activity against AChE” value [1] is reported as “no inhibitory activity” and the IC50 [2] is reported as 20.1 ± 1.19 µM. The “Non-cytotoxic concentration on SH-SY5Y cells” value [3] was at most 25 µM, the “COX-2 selective index S.I = IC50 COX-1/IC50 COX-2” value [4] was 6.889 and the IC50 [4] was 2.92 ± 0.13 µM.
`COC(=O)C1=CCC(C(C)CCC2OC2(C)C)CC1` (stereo not drawn) [Metabolite 5, 7-dehydroxy-10,11-epoxy-3-methylcarboxy-α-bisabolol] was tested, and the IC50 [1] was over 100 µM, the “Inhibitory activity against AChE” value [1] was “no inhibitory activity” and the IC50 [2] was 16.8 ± 1.04 µM. For the same molecule, the “COX-2 selective index S.I = IC50 COX-1/IC50 COX-2” value [4] was 6.711, the IC50 [4] was 2.51 ± 0.09 µM and the “Neuroprotective activity against H2O2” value [5] was “didn’t show any neuroprotective activity”.
For `O.Oc1cc(O)c2c(c1)O[C@H](c1ccc(O)c(O)c1)[C@@H](O)C2` [catechin, reference compound], the “Concentration showing cytotoxic effect on SH-SY5Y cells” value [3] was 200 µM and the “Neuroprotective effect against H2O2” value ([5]; only at 50 and 100 μM) was “exhibited neuroprotective effects”.
In the case of `CC(C)(O)C(O)CCC(C)(O)C1CC=C(CO)CC1` (stereo not drawn) [Metabolite 6, 10β,11,15-trihydroxy-α-bisabolol], the “Inhibitory activity against AChE” value [1] is reported as “no inhibitory activity”, the IC50 [1, 7] is reported as over 100 µM and the IC50 [2] is reported as 67.8 ± 2.28 µM. The “Non-cytotoxic concentration on SH-SY5Y cells” value [3] was at most 12.5 µM, the “COX-2 selective index S.I = IC50 COX-1/IC50 COX-2” value [4] was 12.58 and the IC50 [4] was 5.39 ± 0.18 µM.
In the case of epicatechin-3-gallate, the “Concentration showing cytotoxic effect on SH-SY5Y cells” value [3] is reported as 200 µM and the “Neuroprotection against Aβ1-42” value [6] is reported as “exhibited neuroprotection”.
Work on `CC(C)=CCC[C@](C)(O)[C@@H]1CC=C(C(=O)O)CC1` [Metabolite 3, Hamanasic acid A] yielded an inhibition at 100 µM ([1]; at 100 µM) of 20%, an IC50 [1, 7] of over 100 µM and an IC50 [2] of 28.1 ± 1.74 µM. For the same molecule, the “COX-2 selective index S.I = IC50 COX-1/IC50 COX-2” value [4] was 4.362, the IC50 [4] was 6.45 ± 0.24 µM and the “Neuroprotective activity against H2O2” value [5] was “didn’t show any neuroprotective activity”.
`CC1=CCC(C(C)(O)CCC(O)C(C)(C)O)CC1` (stereo not drawn) [Metabolite 2, 10β,11-dihydroxy-α-bisabolol] was tested, and the IC50 [1, 7] was 12.9 µM, the IC50 [2] was 71 ± 4.4 µM and the “COX-2 selective index S.I = IC50 COX-1/IC50 COX-2” value [4] was 4.093. It also gave an IC50 [4] of 17.3 ± 0.66 µM.
`CC(C)=CCCC(C)(O)C1CCC(C)CC1` (stereo not drawn) [Metabolite 4, 2,3-dihydro-α-bisabolol] was tested, and the “Inhibitory activity against AChE” value [1] was “no inhibitory activity”, the IC50 [1, 7] was over 100 µM and the IC50 [2] was 35.3 ± 2.18 µM. The “COX-2 selective index S.I = IC50 COX-1/IC50 COX-2” value [4] was 8.598 and the IC50 [4] was 4.11 ± 0.15 µM.
